Measurements taken from patent publication US8686113B2 (priority 2009, dated 2014).
≈ marks a conversion by molar mass, not a printed value. Like-named read-outs stand apart in the source and are kept apart here. Non-standard residues stand in square brackets, D forms with d. Residues, ends and D or L forms follow the SMILES beside them. Hyp = O=C(O)[C@@H]1C[C@@H](O)CN1; Orn = NCCC[C@H](N)C(=O)O

Tests used:
[1] = mouse, serum
Protocol: For this, the peptides and peptidomimetics were dissolved in water, mouse serum was added and the peptide concentration was adjusted to 75 μg/mL. While shaking continuously, the mixture was incubated at 37° C. After 0, 30, 60, 120, 240 and 360 minutes, in each case an aliquot was taken and mixed with 15% aqueous trichloroacetic acid (Carl Roth GmbH & Co. KG; Karlsruhe, Germany). After incubation on ice for a further 10 minutes, the precipitated serum proteins were centrifuged off (5 min, 13400 rpm, MiniSpin, Eppendorf AG, Hamburg, Germany). The supernatant was removed, neutralized with 1 mol/L aqueous sodium hydroxide solution (Fluke Chemie GmbH, Buchs, Switzerland) and stored at −20° C. until analysis.
The supernatants were analyzed by RP-HPLC with a linear acetonitrile gradient (Biosolve BV, Valkenswaard, The Netherlands) in the presence of 0.1% trifluoroacetic acid (TFA, UV-grade, Fluka Chemie GmbH, Buchs, Switzerland) as ion-pairing reagent. The fractions were co-crystallized with α-cyanohydroxycinnamic acid (Bruker Daltonik GmbH; Bremen, Germany) as matrix (5.3 mg/mL in 50% acetonitrile in 0.1% aqueous TFA) and were analyzed with a tandem mass spectrometer (MALDI-TOF/TOF-MS, 4700 Proteomics Analyzer; Applied Biosystems GmbH, Weiterstadt, Germany) in the positive-ion reflector mode. The proportion of intact peptides and their degradation products or metabolites could thus be identified and quantified at the individual time points. The control used was 25% aqueous mouse serum, which was analyzed in parallel for the same time intervals.

[2] = test system: M. luteus 10240; experiment: Growth inhibition assay (microdilution MIC); assay type: cell-based, Micrococcus luteus; conditions: 10240, 20 h
Method in brief: (§1)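 Broth microdilution in 1% TSB with twofold peptide series, final 128 μg/mL to 62.5 ng/mL, against 5×10^6 bacteria/mL stock suspension added 1:1. Incubated 20 h at 37 °C, growth read by absorbance at 595 nm; MIC is the lowest concentration with no growth, determined in triplicate.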

[3] = test system: E. coli BL21 A1; assay type: cell-based, Escherichia coli
Method in brief: as §1

[4] = test system: Escherichia coli DSM 10233
Protocol: (§2) The minimum inhibitory concentrations (MIC) of the antimicrobial peptides and peptide derivatives were determined in microdilution assays. These used a continuous peptide dilution in sterile flat-bottomed 96-well microtiter plates (polystyrene, Greiner Bio-One GmbH, Frickenhausen, Germany) and a total volume of 100 μL per well. The aqueous peptide or peptidomimetic solutions were diluted with 1% TSB water, to obtain a final concentration of 256 μg/mL. 50 μL of the peptide or peptidomimetic solution was pipetted into the first well of each series and stirred. From this solution, 50 μL was transferred to the second well, stirred and again 50 μL was transferred to the next well, and so on. A double dilution series is obtained, beginning at 256 μg/mL in the first well to 125 ng/mL in the twelfth well. The bacteria, e.g. E. coli BL21 A1, were cultured overnight at 37° C. in nutrient broth (NB, Carl Roth GmbH+Co. KG, Karlsruhe, Germany). 50 μL of a 5×10^6 bacteria/mL suspension in 1% TSB was added to each well of the microtiter plate and thus a final concentration of the peptides or peptidomimetics from 128 μg/mL (well 1) to 62.5 ng/mL (well 12) was established in each series. The plates were incubated at 37° C. for 20 h and then the absorption was measured at 595 nm with a TECAN microtiter plate spectrophotometer (Tecan Trading AG, Mannedorf, Switzerland). The MIC values of all peptides and peptidomimetics were determined in triplicate. Sterile water was used as negative control.
The peptides shown in Table 8 were investigated for their MIC against pathogenic bacteria such as E. coli DSM 10233, K. pneumoniae DSM 681 and P. aeruginosa DSM 3227.

[5] = test system: K. pneumoniae 012-3131
Protocol: as §2
(§3) The tests were in this case carried out in Mueller-Hinton medium (¼ concentrated), which is equivalent to 1% TSB.

[6] = test system: E. coli D31 J. Wilson; conditions: ¼ Muller-Hinton medium
Protocol: as §2, §3

[7] = test system: E. coli ATCC BAA-457; conditions: ¼ Muller-Hinton medium
Protocol: as §2, §3

[8] = test system: K. pneumoniae K6 ATCC 700603
Protocol: as §2, §3

[9] = test system: K. pneumoniae ATCC 27799
Protocol: as §2, §3

[10] = test system: E. coli 045-849 SENTRY; conditions: 045-849 SENTRY
Protocol: as §2, §3

Row | Molecule | half-life ([1]; Half-life in 25% mouse serum, 25% aqueous mouse serum, 37° C., 75 μg/mL peptide) [h] | half-life ([1]; half-life in 25% aqueous mouse serum, 25% serum) [h] | MIC M. luteus 10240 [2] [µg/mL] | MIC values against E. coli [3] [µg/mL] | MIC E. coli BL21 A1 ([3]; 1% TSB, 20 h at 37° C.) [µg/mL] | MIC E. coli DSM 10233 [4] [µg/mL] | MIC K. pneumoniae 012-3131 [5] [µg/mL] | MIC E. coli D31 J. Wilson [6] [µg/mL] | MIC E. coli SEQ 102ATCC # BAA-4 57 [7] [µg/mL] | MIC K. pneumoniae K6 ATCC 700603 ([8]; ATCC 700603) [µg/mL] | MIC K. pneumoniae ATCC 27799 ([9]; ATCC 27799) [µg/mL] | MIC E. coli 045-849 SENTRY [10] [µg/mL] | MIC E. coli BL21 A1 ([3]; BL21, 20 h) [µg/mL] | MIC K. pneumoniae K6 ATCC 700603 ([8]; ¼ Muller-Hinton medium) [µg/mL] | MIC K. pneumoniae ATCC 27799 ([9]; ¼ Muller-Hinton medium) [µg/mL]
1 | CC[C@H](C)[C@H](NC(=O)[C@@H]1C[C@@H](O)CN1C(=O)[C@H](CCCNC(=N)N)NC(=O)[C@@H]1CCCN1C(=O)[C@@H]1CCCN1C(=O)[C@H](CCCNC(=N)N)NC(=O)[C@@H]1CCCN1C(=O)[C@H](CCCNC(=N)N)NC(=O)[C@@H]1CCCN1C(=O)[C@H](CC(C)C)NC(=O)[C@H](Cc1ccc(O)cc1)NC(=O)[C@@H]1CCCN1C(=O)[C@@H]1CCCN1C(=O)[C@H](CCCCN)NC(=O)[C@H](CC(=O)O)NC(=O)[C@@H](N)C(C)C)C(=O)N[C@@H](Cc1ccc(O)cc1)C(=O)N[C@@H](CC(N)=O)C(=O)N[C@@H](CCCN)C(N)=O [SEQ ID NO. 63] (H-VDKPPYLPRPRPPR[Hyp]IYN[Orn]-NH2) | > 6 | > 6 | 8 (≈ 3.47 µM) | 4 (≈ 1.74 µM) | 4 (≈ 1.74 µM) | 1 to 4 |  |  |  |  |  |  |  |  | 
2 | CC[C@H](C)[C@H](NC(=O)[C@@H]1C[C@@H](O)CN1C(=O)[C@H](CCCNC(=N)N)NC(=O)[C@@H]1C[C@@H](O)CN1C(=O)[C@@H]1CCCN1C(=O)[C@H](CCCNC(=N)N)NC(=O)[C@@H]1CCCN1C(=O)[C@H](CCCNC(=N)N)NC(=O)[C@@H]1CCCN1C(=O)[C@H](CC(C)C)NC(=O)[C@H](Cc1ccc(O)cc1)NC(=O)[C@@H]1CCCN1C(=O)[C@@H]1CCCN1C(=O)[C@H](CCCCN)NC(=O)[C@H](CC(=O)O)NC(=O)[C@@H](N)C(C)C)C(=O)N[C@@H](Cc1ccc(O)cc1)C(=O)N[C@@H](CC(N)=O)C(=O)N[C@@H](CCCN)C(N)=O [SEQ ID NO. 108] (H-VDKPPYLPRPRP[Hyp]R[Hyp]IYN[Orn]-NH2) |  |  |  |  | 2 (≈ 0.862 µM) | 1 to 4 |  |  |  |  |  |  |  |  | 
3 | CC[C@H](C)[C@H](NC(=O)[C@H](Cc1ccc(O)cc1)NC(=O)[C@H](CC(N)=O)NC(=O)[C@@H](N)CCCN)C(=O)N[C@@H](CCCN)C(=O)N[C@@H](CCCNC(=N)N)C(=O)N1CCC[C@H]1C(=O)N1CCC[C@H]1C(=O)N[C@@H](CCCNC(=N)N)C(=O)N1CCC[C@H]1C(=O)N[C@@H](CCCNC(=N)N)C(=O)N1CCC[C@H]1C(=O)N[C@@H](CC(C)C)C(=O)N[C@@H](Cc1ccc(O)cc1)C(=O)N1CCC[C@H]1C(=O)N1CCC[C@H]1C(=O)N[C@@H](CCCCN)C(=O)N[C@@H](CC(=O)O)C(=O)N[C@H](C(N)=O)C(C)C [SEQ ID NO. 113, ONYIORPPRPRPLYPPKDV-NH2] (H-[Orn]NYI[Orn]RPPRPRPLYPPKDV-NH2) |  |  |  |  |  | 1 to 4 |  |  |  |  |  |  |  |  | 
4 | CC[C@H](C)[C@H](NC(=O)[C@H](Cc1ccc(O)cc1)NC(=O)[C@H](CC(N)=O)NC(=O)[C@@H](N)CCCN)C(=O)N1C[C@H](O)C[C@H]1C(=O)N[C@@H](CCCNC(=N)N)C(=O)N1CCC[C@H]1C(=O)N1CCC[C@H]1C(=O)N[C@@H](CCCNC(=N)N)C(=O)N1CCC[C@H]1C(=O)N[C@@H](CCCNC(=N)N)C(=O)N1CCC[C@H]1C(=O)N[C@@H](CC(C)C)C(=O)N[C@@H](Cc1ccc(O)cc1)C(=O)N1CCC[C@H]1C(=O)N1CCC[C@H]1C(=O)N[C@@H](CCCCN)C(=O)N[C@@H](CC(=O)O)C(=O)N[C@H](C(N)=O)C(C)C [SEQ ID NO. 114] (H-[Orn]NYI[Hyp]RPPRPRPLYPPKDV-NH2) |  |  |  |  |  | 1 to 4 |  |  |  |  |  |  |  |  | 
5 | CC[C@H](C)[C@H](NC(=O)[C@H](CCCNC(=N)N)NC(=O)[C@H](CCCNC(=N)N)NC(=O)[C@@H]1CCCN1C(=O)[C@@H]1CCCN1C(=O)[C@H](CCCNC(=N)N)NC(=O)[C@@H]1CCCN1C(=O)[C@H](CCCNC(=N)N)NC(=O)[C@@H]1C[C@@H](O)CN1C(=O)[C@H](CC(C)C)NC(=O)[C@H](Cc1ccc(O)cc1)NC(=O)[C@@H]1CCCN1C(=O)[C@@H]1CCCN1C(=O)[C@H](CCCCN)NC(=O)[C@H](CC(=O)O)NC(=O)[C@@H](N)C(C)C)C(=O)N[C@@H](Cc1ccc(O)cc1)C(=O)N[C@@H](CC(N)=O)C(=O)N[C@@H](CCCNC(=N)N)C(=O)O [compound 21] (H-VDKPPYL[Hyp]RPRPPRRIYNR-OH) |  |  | 16 (≈ 6.65 µM) |  |  |  | 32 (≈ 13.3 µM) | 32 (≈ 13.3 µM) | 64 (≈ 26.6 µM) | 64 (≈ 26.6 µM) | 128 (≈ 53.2 µM) | 16 (≈ 6.65 µM) | 16 (≈ 6.65 µM) |  | 
6 | CC[C@H](C)[C@H](NC(=O)[C@H](CCCNC(=N)N)NC(=O)[C@H](CCCNC(=N)N)NC(=O)[C@@H]1CCCN1C(=O)[C@@H]1CCCN1C(=O)[C@H](CCCNC(=N)N)NC(=O)[C@@H]1CCCN1C(=O)[C@H](CCCNC(=N)N)NC(=O)[C@@H]1CCCN1C(=O)[C@H](CC(C)C)NC(=O)[C@H](Cc1ccc(O)cc1)NC(=O)[C@@H]1CCCN1C(=O)[C@@H]1C[C@@H](O)CN1C(=O)[C@H](CCCCN)NC(=O)[C@H](CC(=O)O)NC(=O)[C@@H](N)C(C)C)C(=O)N[C@@H](Cc1ccc(O)cc1)C(=O)N[C@@H](CC(N)=O)C(=O)N[C@@H](CCCNC(=N)N)C(=O)O [compound 23] (H-VDK[Hyp]PYLPRPRPPRRIYNR-OH) |  |  | 16 (≈ 6.65 µM) |  |  |  | 16 (≈ 6.65 µM) | 8 (≈ 3.32 µM) | 32 (≈ 13.3 µM) | 32 (≈ 13.3 µM) | 64 (≈ 26.6 µM) | 8 (≈ 3.32 µM) | 8 (≈ 3.32 µM) |  | 
7 | H-VDKPPYLPRPKPPRRIYNNR-OH [compound 5] |  |  | 16 |  |  |  | 64 | 64 | 128 |  |  | 16 | 16 | 128 | 128
8 | H-VDKPPYLPRPRPPRPIYNR-OH [compound 20] |  |  | 16 |  |  |  | 64 | 4 | 32 | 128 | 64 | 8 | 8 |  | 
9 | H-VDKPPYLPRPRPPRRIYNRN-OH [compound 16] |  |  | 16 |  |  |  | 32 | 32 | 32 | 64 | 128 | 4 | 8 |  | 
